Data reported in patent US8192962B2, “Processes for detecting toxic substances” (Daikin Industries, Ltd., priority 2001, dated 2012).

Test system: Mitochondria-located protein genes
Test: DNA chip mRNA expression in yeast, mitochondria-located protein genes (Table 2)
Type: cell-based, Saccharomyces cerevisiae S288C
Conditions: cells incubated two hours with the chemical substance
Outline: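 Ratios compare mRNA levels in stressed and control S. cerevisiae. Each toxicant was applied for two hours to log-phase cultures at 25° C. at a sub-lethal, growth-inhibiting level; fluorescent cDNA (Cy3- or Cy5-dUTP) was hybridized to a genome-wide yeast chip for over 12 h at 65° C.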

Measured: The level of expressed mRNA in the presence of chemical substance/The level of expressed mRNA in the absence of chemical substance

Na2As [(1)]
0.5: yeast gene YJR045C
1.5: yeast gene YGL187C | yeast gene YKL016C | yeast gene YML054C | yeast gene YPL134C
0.6: yeast gene YCL057W
1.1: yeast gene YAL039C | yeast gene YBR091C | yeast gene YCR083W | yeast gene YDR231C | yeast gene YDR347W | yeast gene YEL039C | yeast gene YGL018C | yeast gene YGR174C | yeast gene YJL102W | yeast gene YJR077C | yeast gene YKL003C | yeast gene YLL041C | yeast gene YLR348C | yeast gene YML120C | yeast gene YML129C | yeast gene YNL055C | yeast gene YNL104C | yeast gene YOL096C | yeast gene YPL040C | yeast gene YPL215W | yeast gene YPR134W
1.0: yeast gene YBL030C | yeast gene YBL038W | yeast gene YBR251W | yeast gene YBR282W | yeast gene YCR046C | yeast gene YGR082W | yeast gene YGR244C | yeast gene YIL155C | yeast gene YJL096W | yeast gene YJL133W | yeast gene YKL170W | yeast gene YOR037W | yeast gene YOR142W | yeast gene YOR187W | yeast gene YPL262W | yeast gene YPR047W
1.2: yeast gene YBR185C | yeast gene YMR035W | yeast gene YPR037C
0.8: yeast gene YBL099W | yeast gene YBR044C | yeast gene YBR221C | yeast gene YER178W | yeast gene YFL016C | yeast gene YMR089C | yeast gene YMR203W | yeast gene YMR267W | yeast gene YNL073W | yeast gene YOR130C
0.4: yeast gene YBL022C
1.7: yeast gene YGL191W | yeast gene YOR150W
2.0: yeast gene YDR178W
1.8: yeast gene YDL067C | yeast gene YDR529C | yeast gene YKL142W | yeast gene YLR395C
0.7: yeast gene YLR259C | yeast gene YLR304C | yeast gene YNL256W | yeast gene YOR176W | yeast gene YOR316C | yeast gene YPR024W
2.1: yeast gene YGR008C | yeast gene YJL166W
1.4: yeast gene YDL198C | yeast gene YGR028W | yeast gene YLR295C | yeast gene YMR023C | yeast gene YMR083W | yeast gene YOR020C
1.6: yeast gene YDR258C | yeast gene YKL141W
0.9: yeast gene YBR003W | yeast gene YBR122C | yeast gene YGR062C | yeast gene YJL180C | yeast gene YJR121W | yeast gene YKL148C | yeast gene YKL194C | yeast gene YKR066C | yeast gene YMR152W | yeast gene YNL071W | yeast gene YPL135W
2.3: yeast gene YLR038C
1.3: yeast gene YDL181W | yeast gene YDR079W | yeast gene YDR298C | yeast gene YDR377W | yeast gene YEL024W | yeast gene YGR076C | yeast gene YHR008C | yeast gene YOR100C
